For 28 compounds, IC50, Cmax and AUC(0-t) results are on record in EP4650351A1, “INHIBITOR OF COMPLEMENT FACTOR B” (Nanjing Chia Tai Tianqing Pharmaceutical Co., Ltd., priority 2023, dated 2024).

Series [1] concerns alternative complement pathway in human serum. The series is described as follows: Complement deposition assay of serum alternative pathway (Wieslab Complement system Alternative pathway kit). The series is classed as biochemical. As to conditions: human serum diluted 18-fold, 37 °C 60 minutes, absorbance 405 nm. Here is the method:
The Wieslab® Complement system Alternative pathway kit (WIESLAB® Complement system Alternative pathway AP330 RUO) was used to detect the inhibitory activity of the compounds on the alternative complement pathway in human serum. Human serum was diluted 18-fold with the kit diluent. The diluted serum was added to a 96-well plate at 130 µL/well. Using a compound titrator (Tecan, D300e), test compounds at corresponding concentrations were added. The test concentration of the compounds started at 10 µM, with 3-fold serial dilution for 6 concentration points, detected in single wells. The DMSO ratio was uniformly adjusted to 0.1% using DMSO in all drug-treated wells. In the positive control wells, 0.1% DMSO and 130 µL of diluted serum were added; in the negative control wells, 0.1% DMSO and 130 µL of the kit diluent were added. The mixtures were pre-incubated at room temperature for 15 min. The incubated mixtures were transferred to the 96-well plate provided by the kit at 100 µL per well, incubated at 37 °C for 60 minutes, and the liquid in the wells was discarded. 300 µL of the washing solution in the kit was added to each well. The wells were washed three times. 100 µL of the conjugated antibody Conjugate in the kit was added to each well, and it was incubated at room temperature for 30 minutes. The liquid in the wells was removed. 300 µL of the washing solution in the kit was added to each well and the wells were washed three times. 100 µL of the substrate solution was added to each well and incubated at room temperature for 30 minutes. […] Table 2. Results of complement deposition in serum alternative pathway

The target of series [2] is T1, human complement factor B (Homo sapiens, UniProt P00751).
T1 construct: purchased ComplementTech A135
T1 sequence (P00751 26-764): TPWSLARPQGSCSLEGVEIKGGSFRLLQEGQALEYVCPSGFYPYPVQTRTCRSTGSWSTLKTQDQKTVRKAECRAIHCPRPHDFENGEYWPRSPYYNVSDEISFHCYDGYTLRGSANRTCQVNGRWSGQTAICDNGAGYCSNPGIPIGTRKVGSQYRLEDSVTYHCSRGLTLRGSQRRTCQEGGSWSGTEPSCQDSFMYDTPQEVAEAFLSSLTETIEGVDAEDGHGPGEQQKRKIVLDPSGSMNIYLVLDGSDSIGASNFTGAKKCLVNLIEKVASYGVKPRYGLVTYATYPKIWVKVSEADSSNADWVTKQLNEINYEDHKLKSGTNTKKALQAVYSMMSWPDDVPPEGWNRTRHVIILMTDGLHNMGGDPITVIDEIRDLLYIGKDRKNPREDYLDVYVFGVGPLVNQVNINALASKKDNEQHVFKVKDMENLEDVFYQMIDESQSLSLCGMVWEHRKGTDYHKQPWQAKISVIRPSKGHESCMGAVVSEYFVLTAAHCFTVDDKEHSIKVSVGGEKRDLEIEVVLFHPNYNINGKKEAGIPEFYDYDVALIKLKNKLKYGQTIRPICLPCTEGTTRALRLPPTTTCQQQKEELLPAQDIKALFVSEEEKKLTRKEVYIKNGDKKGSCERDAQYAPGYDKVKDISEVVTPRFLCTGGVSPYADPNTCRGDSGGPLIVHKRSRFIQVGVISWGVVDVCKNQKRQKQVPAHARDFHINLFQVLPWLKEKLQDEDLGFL
The series is described as follows: TR-FRET competitive binding assay of human complement factor B (Cy5-labeled probe). The settings on record: inhibitory activity against complement factor B; biotin-labeled factor B 25 nM, Cy5 probe 75 nM, 4 °C.

Series [3] can be described thus: Pharmacokinetic study in mice. As to conditions: mouse, 10 mg/kg, PO (10 mpk), male ICR (CD-1) mice, plasma; for AUC(0-t): read-out: AUC0-24. The class given is in vivo. Here is the method:
Experimental Example 3: Pharmacokinetic study in mice
Purpose of the experiment: To investigate the plasma pharmacokinetics in male ICR (CD-1) mice after single intravenous administration and gavage administration of the compounds of the present disclosure.
Experimental animals: Male ICR (CD-1) mice, body weight 32-35 g; supplier: Vital River Laboratory Animal Technology Co., Ltd.
Experimental procedures: Intravenous Administration (IV); Oral Gavage (PO); the dose was 10 mg/kg (vehicle: water (containing 0.5% methylcellulose (w/v) and 0.5% Tween 80 (v/v)).
Sample collection: At each set time point, 40 µL of blood was collected from the orbital sinus of the experimental animals. Whole blood samples were placed in anticoagulant tubes containing EDTA-K2. The whole blood samples were centrifuged at 1500 g for 10 min to separate plasma. The upper-layer plasma samples were collected into sample tubes for LC-MS/MS analysis.
Data analysis: Plasma concentrations were processed using the non-compartmental model in WinNonlin™Version6.3 (Pharsight, Mountain View, CA) pharmacokinetic software. Pharmacokinetic parameters Cl, T1/2, Cmax, and AUC0-24 were calculated using the linear-log trapezoidal method, and the results were shown in the table below. Table 3. Results of the pharmacokinetic study

pIC50: −log10 of the molar value.

In turn, `CCCN1CCN(Cc2c(OC)cc(C)c3[nH]ccc23)C(c2ccc(C(=O)O)cc2)C1` (racemic) [Example 1-2, (±)4-(1-((5-methoxy-7-methyl-1H-indol-4-yl)methyl)-4-propylpiperazin-2-yl)benzoic acid] had a pIC50 in series [1] of 6.88. For the compound `COc1cc(C)c2[nH]ccc2c1CN1CCN(C2COC2)CC1c1ccc(C(=O)O)cc1` (racemic) [Example 3, (±)-4-(1-((5-methoxy-7-methyl-1H-indol-4-yl)methyl)-4-(oxetan-3-yl)piperazin-2-yl)benzoic acid], in series [2], the pIC50 was below 6.00. Turning to `COc1cc(C)c2[nH]ccc2c1CN1CCN(CC2CC2)CC1c1ccc(C(=O)O)cc1` (racemic) [Example 4, (±)4-(4-(cyclopropylmethyl)-1-((5-methoxy-7-methyl-1H-indol-4-yl)methyl)piperazin-2-yl)benzoic acid], in series [2], the pIC50 was below 6.00. `COc1cc(C)c2[nH]ccc2c1CN1CCN(CC2CC2(F)F)CC1c1ccc(C(=O)O)cc1` (racemic) [Example 5, (±)4-(4-((2,2-difluorocyclopropyl)methyl)-1-((5-methoxy-7-methyl-1H-indol-4-yl)methyl)piperazin-2-yl)benzoic acid] showed a pIC50 in series [2] of 6.69.

As for `COc1cc(C)c2[nH]ccc2c1CN1CCN(CC(F)F)CC1c1ccc(C(=O)O)cc1` (racemic) [Example 6-1, (±)4-(4-(2,2-difluoroethyl)-1-((5-methoxy-7-methyl-1H-indol-4-yl)methyl)piperazin-2-yl)benzoic acid], in series [2], the pIC50 was below 6.00. `COc1cc(C)c2[nH]ccc2c1CN1CCN(CC(F)F)CC1c1ccc(C(=O)O)cc1` (racemic) [Example 6-2, (±)4-(4-(2,2-difluoroethyl)-1-((5-methoxy-7-methyl-1H-indol-4-yl)methyl)piperazin-2-yl)benzoic acid] showed a pIC50 in series [1] of 6.67. As for `COc1cc(C)c2[nH]ccc2c1CN1CCN(CCC(F)(F)F)CC1c1ccc(C(=O)O)cc1` (racemic) [Example 9, (±)4-(1-((5-methoxy-7-methyl-1H-indol-4-yl)methyl)-4-(3,3,3-trifluoropropyl)piperazin-2-yl) benzoic acid], the pIC50 in series [2] is 7.55. As for `COc1cc(C)c2[nH]ccc2c1CN1CCN(C2CC(C(F)(F)F)C2)CC1c1ccc(C(=O)O)cc1` (racemic) [Example 10-2, (±)4-(1-((5-methoxy-7-methyl-1H-indol-4-yl)methyl)-4-(3-(trifluoromethyl)cyclobutyl)piperazin-2-yl)benzoic acid], in series [2], the pIC50 was 6.93.

With `COc1cc(C)c2[nH]ccc2c1CN1CCN(CC(F)(F)F)CC1c1ccc(C(=O)O)cc1` (racemic) [Example 11-2, (±)4-(1-((5-methoxy-7-methyl-1H-indol-4-yl)methyl)-4-(2,2,2-trifluoroethyl)piperazin-2-yl) benzoic acid], the pIC50 in series [2] was 7.15. This pIC50 is 0.22 log units higher than that of the compound before. As to `COc1cc(C)c2[nH]ccc2c1O[C@H]1CCN(CCC(F)(F)F)C[C@@H]1c1ccc(C(=O)O)cc1` (single isomer, unassigned) [Example 15a-2], the pIC50 in series [1] was 7.26.

`COc1cc(C)c2[nH]ccc2c1SC1CCN(CC(F)F)CC1c1ccc(C(=O)O)cc1` (single isomer, unassigned) [Example 16-4] had a negative logarithm of the IC50 (pIC50) in series [2] of 6.71.

For the compound `[2H]C([2H])([2H])Oc1cc(C)c2[nH]ccc2c1O[C@H]1CCN(CCC(F)(F)F)C[C@@H]1c1ccc(C(=O)O)cc1` (single isomer, unassigned) [Example 17a-2], in series [3], the peak concentration (Cmax) was 679 ng/mL and the AUC(0-t) is 6480 ng·h/mL. Consider `CCOC1CCC(Sc2c(OC)cc(C)c3[nH]ccc23)C(c2ccc(C(=O)O)cc2)C1` (single isomer, unassigned) [Example 19a-2], for which the pIC50 in series [2] was 6.65. In series [2], `CCOC1CCC(Sc2c(OC)cc(C)c3[nH]ccc23)C(c2ccc(C(=O)O)cc2)C1` (single isomer, unassigned) [Example 19a-4] showed a pIC50 of 6.59.

Take `CCOC1CCC(Sc2c(OC)cc(C)c3[nH]ccc23)C(c2ccc(C(=O)O)cc2)C1` (single isomer, unassigned) [Example 19b-2]: the pIC50 in series [2] was 8.10; in series [1], 6.98. On to `CCOC1CCC(Sc2c(OC)cc(C)c3[nH]ccc23)C(c2ccc(C(=O)O)cc2)C1` (single isomer, unassigned) [Example 19b-4], for which the pIC50 in series [2] was 6.75. As to `Cc1cc(OC(F)F)c(OC2CCN(CCC(F)(F)F)CC2c2ccc(C(=O)O)cc2)c2cc[nH]c12` (single isomer, unassigned) [Example 25-2], the pIC50 in series [2] is 7.62. For the compound `CCOC1CCC(Cc2c(OC)cc(C)c3[nH]ccc23)N(c2ccc(C(=O)O)cc2)C1` (single isomer, unassigned) [Example 32a-2, 4-(5-ethoxy-2-((5-methoxy-7-methyl-1H-indol-4-yl)methyl)piperidin-1-yl)benzoic acid], the negative-log IC50 (pIC50) in series [2] is 6.22. This pIC50 lies 1.40 log units lower than the previous one. As to `CCOC1CCC(Cc2c(OC)cc(C)c3[nH]ccc23)N(c2ccc(C(=O)O)cc2)C1` (single isomer, unassigned) [Example 32a-4, 4-(5-ethoxy-2-((5-methoxy-7-methyl-1H-indol-4-yl)methyl)piperidin-1-yl)benzoic acid], the pIC50 in series [2] was 6.55. On the same count and under the same terms, next, `COc1cc(C)c2[nH]ccc2c1O[C@H]1CCN(CC(F)F)C[C@@H]1c1ccc(C(=O)O)cc1` [Example 13a-1, 4-((3S,4S)-1-(2,2-difluoroethyl)-4-((5-methoxy-7-methyl-1H-indol-4-yl)oxy)piperidin-3-yl)benzoic acid]: 6.01. On to `[2H]C([2H])([2H])Oc1cc(C)c2[nH]ccc2c1O[C@@H]1CCN(CC(F)F)C[C@H]1c1ccc(C(=O)O)cc1` [Example 26, 4-((3R,4R)-1-(2,2-difluoroethyl)-4-((5-(methoxy-d3)-7-methyl-1H-indol-4-yl)oxy)piperidin-3-yl) benzoic acid], for which the pIC50 in series [2] is 7.92. For the same compound, in series [3], the Cmax was determined as 944 ng/mL and the AUC(0-t) was 4960 ng·h/mL. As to `[2H]C([2H])([2H])Oc1cc(C)c2[nH]ccc2c1O[C@@H]1CCN(CC(F)(F)F)C[C@H]1c1ccc(C(=O)O)cc1` [Example 27, 4-((3R,4R)-4-((5-(methoxy-d3)-7-methyl-1H-indol-4-yl)oxy)-1-(2,2,2-trifluoroethyl)piperidin-3-yl) benzoic acid], the pIC50 in series [2] was 8.04. As for `Cc1cc(OC(F)F)c(O[C@@H]2CCN(CC(F)(F)F)C[C@H]2c2ccc(C(=O)O)cc2)c2cc[nH]c12` [Example 28, 4-((3R,4R)-4-((5-(difluoromethoxy)-7-methyl-1H-indol-4-yl)oxy)-1-(2,2,2-trifluoroethyl)piperidin-3-yl)benzoic acid], the pIC50 in series [2] is 7.34.

Regarding `Cc1cc(OC(F)F)c(O[C@@H]2CCN(CC(F)F)C[C@H]2c2ccc(C(=O)O)cc2)c2cc[nH]c12` [Example 29, 4-((3R,4R)-1-(2,2-difluoroethyl)-4-((5-(difluoromethoxy)-7-methyl-1H-indol-4-yl)oxy)piperidin-3-yl) benzoic acid], the pIC50 in series [2] was 7.51. For `Cc1cc(OC(F)(F)F)c(O[C@@H]2CCN(CC(F)F)C[C@H]2c2ccc(C(=O)O)cc2)c2cc[nH]c12` [Example 30, 4-((3R,4R)-1-(2,2-difluoroethyl)-4-((7-methyl-5-(trifluoromethoxy)-1H-indol-4-yl)oxy)piperidin-3-yl)benzoic acid], the pIC50 in series [2] was 7.14. As for `Cc1cc(OC(F)(F)F)c(O[C@@H]2CCN(CC(F)(F)F)C[C@H]2c2ccc(C(=O)O)cc2)c2cc[nH]c12` [Example 31, 4-((3R,4R)-4-((7-methyl-5-(trifluoromethoxy)-1H-indol-4-yl)oxy)-1-(2,2,2-trifluoroethyl)piperidin-3-yl)benzoic acid], in series [2], the pIC50 was 6.37.

Turning to `COc1cc(C)c2[nH]ccc2c1O[C@@H]1CCN(CC(F)(F)F)C[C@H]1c1ccc(-c2n[nH]c(=O)o2)cc1` [Example 33, 5-(4-((3R,4R)-4-((5-methoxy-7-methyl-1H-indol-4-yl)oxy)-1-(2,2,2-trifluoroethyl)piperidin-3-yl)phenyl)-1,3,4-oxadiazol-2(3H)-one], in series [2], the pIC50 is 7.63. Turning to `CCO[C@H]1CCN(Cc2c(OC)cc(C)c3[nH]ccc23)[C@H](c2ccc(C(=O)O)cc2)C1` [LNP023, reference compound], in series [3], the Cmax stood at 1160 ng/mL and the AUC(0-t) was 4110 ng·h/mL.
